Measurements from US10870658B2, “Aldose reductase inhibitors and methods of use thereof” (The Trustees of Columbia University in the City of New York, priority 2016, dated 2020).
≈ marks a conversion by molar mass, not a printed value.

Assays:
[1] = physchem; details: octanol/phosphate buffer, pH 7.4
Procedure: Octanol/Buffer Partition Coefficient (Log D) at pH 7.4:
The octanol/buffer partition coefficient of three test articles was measured at pH 7.4. The pH 7.4 buffer was prepared by combining 50 mL of 0.2 M solution of KH2PO4 with 150 mL of dH2O, and then adjusting to pH 7.4 with 10 N NaOH. In a single incubation, 15 μL of a 10 mM DMSO solution of each test article (100 μM) was added to test tubes which contained 0.75 mL of octanol and 0.75 mL of pH 7.4 phosphate buffer. Testosterone was also introduced to each tube as an internal control, also at a dosing concentration of 100 μM. These samples were gently mixed on a benchtop rotator for 1 hour at room temperature. The tubes were then removed from the rotator and the aqueous and organic phases were allowed to separate for 1 hour. An aliquot of the organic layer was taken and diluted 200-fold into a mixture of 1:1 buffer:acetonitrile (ACN). An aliquot of the aqueous layer was taken and diluted 2-fold, 10-fold, and 200-fold into a mixture of 1:1 buffer:ACN. All samples were assayed by LC-MS/MS using electrospray ionization.

[2] = Equilibrium solubility in phosphate buffer, pH 7.4; type: physicochemical; details: aqueous buffer, thermodynamic from solid, phosphate buffer pH 7.4, shaken overnight at room temperature, LC-MS/MS
Procedure: Equilibrium Solubility in Phosphate Buffer, pH 7.4:
The equilibrium solubility of test articles was measured in pH 7.4 aqueous buffers. […] At least 1 mg of powder for each test article was combined with 1 mL of buffer to make a≥1 mg/mL mixture. These samples were shaken on a Thermomixer® overnight at room temperature. The samples were then centrifuged for 10 minutes at 10,000 rpm. […] Standard concentrations ranged from 1.0 μM to 1.0 nM.

[3] = molecular target: Aldose Reductase (Homo sapiens, UniProt P15121); experiment: Aldose reductase enzymatic inhibition (micro plate assay, D-glyceraldehyde and NADPH, absorbance at 340 nm); type: biochemical; details: D-glyceraldehyde and NADPH as substrate; 0.1 nm to 10 uM
Procedure: Aldose Reductase Enzymatic Inhibition:
All compounds and Zopolrestat were tested individually in a micro plate assay for AR inhibition using D-glyceraldehyde and NADPH as substrate and the absorbance changes at 340 nm was monitored. % Inhibition was calculated for ARIs at concentration ranging 0.1 nm to 10 uM.

[4] = positive control, octanol/buffer pH 7.4; cited from earlier work

SMILES	melting point [°C]	logD [1]	solubility [2] [µg/mL]	IC50 [3] [µM]	Log D (published/known) [4]
O=C(O)Cc1nn(Cc2nc3cc(C(F)(F)F)ccc3s2)c(=O)c2c(Cl)sc(Cl)c12 [Compound VII, 2-(5,7-dichloro-4-oxo-3-((5-(trifluoromethyl)benzo[d]thiazol-2-yl)methyl)-3,4-dihydrothieno[3,4-d]pyridazin-1-yl)acetic acid]	205 to 207				
O=C(O)Cc1nn(Cc2nc3cc(C(F)(F)F)ccc3s2)c(=O)c2cscc12 [Compound XII, 2-(4-oxo-3-((5-(trifluoromethyl)benzo[d]thiazol-2-yl)methyl)-3,4-dihydrothieno[3,4-d]pyridazin-1-yl)acetic acid]		-0.09	970 (≈ 2280 µM)		
O=C(O)Cc1nn(Cc2nc3cc(F)ccc3s2)c(=O)c2cscc12 [Compound XIV, 2-(3-((5-fluorobenzo[d]thiazol-2-yl)methyl)-4-oxo-3,4-dihydrothieno[3,4-d]pyridazin-1-yl)acetic acid]	172 to 173	-0.87	650 (≈ 1730 µM)	0.06	
O=C(O)Cc1nn(Cc2nc3ccccc3s2)c(=O)c2cscc12 [Compound XVI, 2-(3-(benzo[d]thiazol-2-ylmethyl)-4-oxo-3,4-dihydrothieno[3,4-d]pyridazin-1-yl)acetic acid]	172 to 173				
O=C(O)Cc1nn(Cc2nc3cc(Cl)ccc3s2)c(=O)c2cscc12 [Compound XX, 2-(3-((5-chlorobenzo[d]thiazol-2-yl)methyl)-4-oxo-3,4-dihydrothieno[3,4-d]pyridazin-1-yl)acetic acid]	184 to 185	-0.35	590 (≈ 1510 µM)	0.035	
CC(C)(C)OC(=O)Cc1nn(Cc2cc3cc(Cl)ccc3o2)c(=O)c2cscc12 [Compound XXIII, tert-butyl 2-(3-((5-chlorobenzofuran-2-yl)methyl)-4-oxo-3,4-dihydrothieno[3,4-d]pyridazin-1-yl)acetate]	117 to 118				
O=C(O)Cc1nn(Cc2cc3cc(Cl)ccc3o2)c(=O)c2cscc12 [Compound XXIV, 2-(3-((5-chlorobenzofuran-2-yl)methyl)-4-oxo-3,4-dihydrothieno[3,4-d]pyridazin-1-yl)acetic acid]	154 to 155				
O=C(O)Cc1nn(Cc2cc3ccccc3o2)c(=O)c2cscc12 [Compound XXVI, 2-(3-(benzofuran-2-ylmethyl)-4-oxo-3,4-dihydrothieno[3,4-d]pyridazin-1-yl)acetic acid]	158 to 159	-0.86	790 (≈ 2320 µM)	0.057	
C[C@]12CC[C@H]3[C@@H](CCC4=CC(=O)CC[C@@]43C)[C@@H]1CC[C@@H]2O [Testosterone]					3.0-3.4
